How the values were obtained:
Experiment in all cases: MS-based quantitative proteomics in NCI-H929 cells
Type in all cases: cell-based
IKZF1 = target: T1, IKZF1 (Homo sapiens, UniProt Q13422+Q96SW2); settings: NCI-H929, 10 μM, 4 h
T1 construct: endogenous in cells; host or cells: NCI-H929
Protocol: (§1) NCI-H929 cells were treated with either 10 μM DMSO or 10 μM MGD-C9 for 4 h. Post-treatment, the cells were washed with PBS (pH = 7.2–7.4, 1×) and then lysed in 8M Urea (UA) (comprising 8M urea, 100 mM Tris-HCl, pH = 8.0). Subsequently, the cell lysate was subjected to centrifugation on a high-speed freezing microcentrifuge (#CF1524R; SCILOGEX, Meriden, CT, USA) at […], and the supernatant was collected. Subsequently, the collected supernatant was treated with 10 mM tris (2-carboxyethyl) phosphine hydrochloride (TCEP) to reduce it for 30 min. Following this, cysteine alkylation was performed using 50 mM 2-chloroacetamide (CAA) for an additional 30 min. The denatured proteins were then digested with trypsin (1 μg/μL) at an enzyme-to-protein ratio of 1:50 and incubated at 37°C overnight. The reaction was stopped by adding 0.1% formic acid (FA). The samples were desalted using 100 μL pipette tips packed with C18 discs (3M, Saint Paul, MN, USA). Prior to sample loading, the tips were conditioned sequentially with 80 μL of acetonitrile (ACN), followed by 80 μL of a 1:1 (v/v) mixture of H2O and ACN, and finally with 80 μL of H2O. The conditioned tips were loaded with peptides. Then, they were washed twice with 80 μL of H2O. After that, the peptides were eluted twice using 80 μL of a solution composed of 50% water and 50% acetonitrile (ACN). The resulting eluates were vacuum-dried and then reconstituted in 0.1% formic acid for the subsequent LC-MS/MS analysis.
(§2) The peptide mixtures were analyzed using an EASY-nLC 1200 liquid chromatography system (Thermo Fisher Scientific, WLM, MA, USA) equipped with a custom-made 15 cm C18 column (150 μm ID, 1.9 μm particle size, 100 Å pore size). Peptide separation was performed over a 75-min gradient at a constant flow rate of 600 nL/min. The gradient profile was as follows: 4%–7% buffer B (1 min), 7%–13% buffer B (6 min), 13%–25% buffer B (38 min), 25%–45% buffer B (22 min), 45%–95% buffer B (1 min), followed 95% buffer B (7-min). The buffers used were Buffer A (0.1% formic acid) and Buffer B (0.1% formic acid in 80% acetonitrile). The peptide mixtures were then analyzed using a Q Exactive HF mass spectrometer (Thermo Fisher Scientific). MS data were acquired in data-dependent acquisition (DDA) mode with a dynamic exclusion duration of 15 s. MS1 scans were acquired in positive-ion mode across a mass-to-charge (m/z) range of 300–1400, with a resolution of 120,000 (at m/z 200) and a maximum injection time of 50 ms. Precursor ions were fragmented using higher-energy collision dissociation (HCD) at 27% normalized collision energy. MS2 spectra were collected with an AGC target of 5.0 × 10^4 and a maximum injection time of 20 ms.
(§3) Label-free MS raw data were processed using MaxQuant (v2.4) against the UniProt Human database (https://www.uniprot.org/, downloaded May 2024; 20,434 entries). A strict false discovery rate (FDR) threshold of ≤0.01 was applied at the spectra, protein, and modification levels. Contaminants and reverse database hits were excluded. Default settings were used for all other parameters. Protein groups output by MaxQuant were further analyzed in R (v4.2.1). Student’s t-test, and p-values < 0.01 were considered statistically significant for statistical analyses and a volcano plot was generated with GraphPad Prism 8.0.

PLZF = target: T2, PLZF (Homo sapiens, UniProt Q05516); settings: NCI-H929, 10 µM
T2 construct: endogenous in cells; host or cells: NCI-H929
Protocol: as §1, §2, §3

GSPT1 = target: T3, GSPT1 (Homo sapiens, UniProt P15170); settings: NCI-H929, 10 μM, 4 h; not notably downregulated
T3 construct: endogenous in cells; host or cells: NCI-H929
Protocol: as §1, §2, §3

IKZF4 = target: T4, IKZF4 (Homo sapiens, UniProt Q9H2S9); settings: NCI-H929, 10 μM, 4 h; not notably downregulated
T4 construct: endogenous in cells; host or cells: NCI-H929
Protocol: as §1, §2, §3

CK1α = target: T5, CK1α (Homo sapiens, UniProt P48729); settings: NCI-H929, 10 μM, 4 h; not notably downregulated
T5 construct: endogenous in cells; host or cells: NCI-H929
Protocol: as §1, §2, §3

IKZF5 = target: T6, IKZF5 (Homo sapiens, UniProt Q9H5V7); settings: NCI-H929, 10 μM, 4 h; not notably downregulated
T6 construct: endogenous in cells; host or cells: NCI-H929
Protocol: as §1, §2, §3

SALL4 = target: T7, SALL4 (Homo sapiens, UniProt Q9UJQ4); settings: NCI-H929, 10 µM
T7 construct: endogenous in cells; host or cells: NCI-H929
Protocol: as §1, §2, §3

IKZF3 = target: T8, IKZF3 (Homo sapiens, UniProt Q96SW2+Q9UKT9); settings: NCI-H929, 10 μM, 4 h
T8 construct: endogenous in cells; host or cells: NCI-H929
Protocol: as §1, §2, §3

IKZF2 = IKZF2 (Homo sapiens, UniProt Q9UKS7); design: endogenous in cells; host or cells: NCI-H929; settings: NCI-H929, 10 μM, 4 h; not notably downregulated
Protocol: NCI-H929 cells were treated with either 10 μM DMSO or 10 μM MGD-C9 for 4 h. Post-treatment, the cells were washed with PBS (pH = 7.2–7.4, 1×) and then lysed in 8M Urea (UA) (comprising 8M urea, 100 mM Tris-HCl, pH = 8.0). Subsequently, the cell lysate was subjected to centrifugation on a high-speed freezing microcentrifuge (#CF1524R; SCILOGEX, Meriden, CT, USA) at […], and the supernatant was collected. Subsequently, the collected supernatant was treated with 10 mM tris (2-carboxyethyl) phosphine hydrochloride (TCEP) to reduce it for 30 min. Following this, cysteine alkylation was performed using 50 mM 2-chloroacetamide (CAA) for an additional 30 min. The denatured proteins were then digested with trypsin (1 μg/μL) at an enzyme-to-protein ratio of 1:50 and incubated at 37°C overnight. […]
The peptide mixtures were analyzed using an EASY-nLC 1200 liquid chromatography system (Thermo Fisher Scientific, WLM, MA, USA) equipped with a custom-made 15 cm C18 column (150 μm ID, 1.9 μm particle size, 100 Å pore size). […] The peptide mixtures were then analyzed using a Q Exactive HF mass spectrometer (Thermo Fisher Scientific). […]
Label-free MS raw data were processed using MaxQuant (v2.4) against the UniProt Human database (https://www.uniprot.org/, downloaded May 2024; 20,434 entries). […] Protein groups output by MaxQuant were further analyzed in R (v4.2.1). […]

Sequence of IKZF2 (Q96SW2 whole entry partner): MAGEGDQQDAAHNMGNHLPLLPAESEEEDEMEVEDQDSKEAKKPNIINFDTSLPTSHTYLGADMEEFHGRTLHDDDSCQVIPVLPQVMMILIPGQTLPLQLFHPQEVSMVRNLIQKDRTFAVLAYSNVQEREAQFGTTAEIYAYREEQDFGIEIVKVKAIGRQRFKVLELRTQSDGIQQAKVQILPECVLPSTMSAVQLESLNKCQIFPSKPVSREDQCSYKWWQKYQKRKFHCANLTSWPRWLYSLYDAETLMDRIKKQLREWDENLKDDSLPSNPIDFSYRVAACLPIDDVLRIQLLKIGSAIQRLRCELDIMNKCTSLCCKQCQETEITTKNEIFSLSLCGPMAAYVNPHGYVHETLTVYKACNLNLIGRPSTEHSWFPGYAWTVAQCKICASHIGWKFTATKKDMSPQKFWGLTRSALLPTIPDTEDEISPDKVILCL
Sequence of IKZF2 (Q16531 whole entry partner): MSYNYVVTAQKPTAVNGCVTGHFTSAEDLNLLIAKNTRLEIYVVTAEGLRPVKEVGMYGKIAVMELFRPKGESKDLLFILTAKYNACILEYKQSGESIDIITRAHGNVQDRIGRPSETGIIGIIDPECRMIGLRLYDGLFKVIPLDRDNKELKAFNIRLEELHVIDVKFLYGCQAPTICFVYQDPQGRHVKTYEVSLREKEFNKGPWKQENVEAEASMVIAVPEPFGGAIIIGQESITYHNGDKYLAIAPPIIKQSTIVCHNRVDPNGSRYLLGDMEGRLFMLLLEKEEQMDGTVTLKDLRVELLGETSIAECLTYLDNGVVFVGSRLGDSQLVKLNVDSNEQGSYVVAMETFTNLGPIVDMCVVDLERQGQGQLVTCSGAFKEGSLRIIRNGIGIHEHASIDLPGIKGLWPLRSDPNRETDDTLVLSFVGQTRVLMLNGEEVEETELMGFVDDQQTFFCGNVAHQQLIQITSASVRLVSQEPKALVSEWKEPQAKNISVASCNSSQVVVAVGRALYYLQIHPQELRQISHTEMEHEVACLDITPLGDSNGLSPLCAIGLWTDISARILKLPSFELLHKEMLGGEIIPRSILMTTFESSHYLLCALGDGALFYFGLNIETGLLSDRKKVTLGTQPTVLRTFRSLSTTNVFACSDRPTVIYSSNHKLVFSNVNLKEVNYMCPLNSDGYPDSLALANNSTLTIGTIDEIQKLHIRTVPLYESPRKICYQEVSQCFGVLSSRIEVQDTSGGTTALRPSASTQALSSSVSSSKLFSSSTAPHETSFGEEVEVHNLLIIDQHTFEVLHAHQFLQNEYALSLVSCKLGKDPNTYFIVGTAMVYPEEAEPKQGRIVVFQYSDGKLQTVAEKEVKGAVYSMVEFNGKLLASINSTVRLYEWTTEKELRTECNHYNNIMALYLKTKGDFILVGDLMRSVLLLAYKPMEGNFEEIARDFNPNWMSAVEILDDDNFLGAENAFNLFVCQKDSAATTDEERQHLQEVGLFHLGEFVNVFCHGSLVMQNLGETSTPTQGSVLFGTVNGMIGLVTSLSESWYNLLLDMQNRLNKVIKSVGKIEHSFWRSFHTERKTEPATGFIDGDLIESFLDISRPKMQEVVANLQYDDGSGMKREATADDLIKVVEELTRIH
Sequence of IKZF2 (Q9UKS7 whole entry): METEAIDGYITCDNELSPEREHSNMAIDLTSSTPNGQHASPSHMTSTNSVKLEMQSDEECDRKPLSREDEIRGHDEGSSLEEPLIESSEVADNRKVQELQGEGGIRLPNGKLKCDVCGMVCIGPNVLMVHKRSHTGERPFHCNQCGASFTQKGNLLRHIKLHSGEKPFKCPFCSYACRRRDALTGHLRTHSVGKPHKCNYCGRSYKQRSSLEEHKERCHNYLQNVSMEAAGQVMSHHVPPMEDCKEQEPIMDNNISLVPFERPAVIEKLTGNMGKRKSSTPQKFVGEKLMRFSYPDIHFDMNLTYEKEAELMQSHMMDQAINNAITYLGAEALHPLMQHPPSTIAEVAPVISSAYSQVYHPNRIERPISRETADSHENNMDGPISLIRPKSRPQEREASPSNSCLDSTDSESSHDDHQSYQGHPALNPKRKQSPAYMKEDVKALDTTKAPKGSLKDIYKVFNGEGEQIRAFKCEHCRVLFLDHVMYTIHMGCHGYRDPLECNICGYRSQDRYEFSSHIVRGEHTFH
T2 sequence (Q96SW2 whole entry partner): as the sequence (Q96SW2 whole entry partner) above
T2 sequence (Q16531 whole entry partner): as the sequence (Q16531 whole entry partner) above
T2 sequence (Q05516 whole entry): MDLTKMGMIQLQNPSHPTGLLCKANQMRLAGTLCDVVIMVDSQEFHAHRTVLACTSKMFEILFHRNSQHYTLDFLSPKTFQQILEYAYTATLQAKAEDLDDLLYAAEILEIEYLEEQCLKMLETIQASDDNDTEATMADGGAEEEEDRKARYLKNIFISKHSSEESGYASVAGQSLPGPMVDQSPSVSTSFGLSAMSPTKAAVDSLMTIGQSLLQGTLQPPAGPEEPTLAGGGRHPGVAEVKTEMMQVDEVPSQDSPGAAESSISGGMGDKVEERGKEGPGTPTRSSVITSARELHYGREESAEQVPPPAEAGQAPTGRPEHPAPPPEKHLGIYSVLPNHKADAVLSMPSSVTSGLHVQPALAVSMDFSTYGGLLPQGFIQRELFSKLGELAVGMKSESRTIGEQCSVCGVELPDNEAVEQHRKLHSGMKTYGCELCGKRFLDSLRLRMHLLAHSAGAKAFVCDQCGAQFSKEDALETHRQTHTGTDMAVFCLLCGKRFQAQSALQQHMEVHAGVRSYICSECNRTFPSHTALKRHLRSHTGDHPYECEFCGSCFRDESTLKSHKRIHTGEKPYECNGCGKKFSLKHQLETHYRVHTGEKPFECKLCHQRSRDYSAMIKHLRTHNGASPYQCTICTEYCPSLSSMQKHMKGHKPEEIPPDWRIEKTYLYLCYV
T3 sequence (Q96SW2 whole entry partner): as the sequence (Q96SW2 whole entry partner) above
T3 sequence (Q16531 whole entry partner): as the sequence (Q16531 whole entry partner) above
T3 sequence (P15170 whole entry): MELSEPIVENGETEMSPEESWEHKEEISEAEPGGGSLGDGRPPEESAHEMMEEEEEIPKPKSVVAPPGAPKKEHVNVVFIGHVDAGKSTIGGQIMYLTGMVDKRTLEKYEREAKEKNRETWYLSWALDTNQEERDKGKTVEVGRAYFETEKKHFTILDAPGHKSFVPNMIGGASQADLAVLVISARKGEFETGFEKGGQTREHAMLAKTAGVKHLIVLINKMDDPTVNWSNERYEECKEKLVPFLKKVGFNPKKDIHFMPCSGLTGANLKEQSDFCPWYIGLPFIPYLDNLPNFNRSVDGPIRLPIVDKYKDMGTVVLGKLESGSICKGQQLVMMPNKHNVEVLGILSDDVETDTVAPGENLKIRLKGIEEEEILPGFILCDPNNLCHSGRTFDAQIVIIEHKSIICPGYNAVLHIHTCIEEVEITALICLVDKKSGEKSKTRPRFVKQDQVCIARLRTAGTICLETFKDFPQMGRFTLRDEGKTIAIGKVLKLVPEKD
T5 sequence (Q96SW2 whole entry partner): as the sequence (Q96SW2 whole entry partner) above
T5 sequence (Q16531 whole entry partner): as the sequence (Q16531 whole entry partner) above
T5 sequence (P48729 whole entry): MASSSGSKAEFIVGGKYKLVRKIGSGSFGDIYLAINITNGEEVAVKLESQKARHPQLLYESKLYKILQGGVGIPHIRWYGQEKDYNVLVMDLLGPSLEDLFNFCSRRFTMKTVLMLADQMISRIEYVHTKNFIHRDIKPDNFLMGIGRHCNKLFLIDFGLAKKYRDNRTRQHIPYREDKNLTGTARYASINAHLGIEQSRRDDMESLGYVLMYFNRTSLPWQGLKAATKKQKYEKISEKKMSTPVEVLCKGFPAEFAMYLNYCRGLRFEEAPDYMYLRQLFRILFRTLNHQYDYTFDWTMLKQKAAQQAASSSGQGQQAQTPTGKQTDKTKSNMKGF
T6 sequence (Q96SW2 whole entry partner): as the sequence (Q96SW2 whole entry partner) above
T6 sequence (Q16531 whole entry partner): as the sequence (Q16531 whole entry partner) above
T6 sequence (Q9H5V7 whole entry): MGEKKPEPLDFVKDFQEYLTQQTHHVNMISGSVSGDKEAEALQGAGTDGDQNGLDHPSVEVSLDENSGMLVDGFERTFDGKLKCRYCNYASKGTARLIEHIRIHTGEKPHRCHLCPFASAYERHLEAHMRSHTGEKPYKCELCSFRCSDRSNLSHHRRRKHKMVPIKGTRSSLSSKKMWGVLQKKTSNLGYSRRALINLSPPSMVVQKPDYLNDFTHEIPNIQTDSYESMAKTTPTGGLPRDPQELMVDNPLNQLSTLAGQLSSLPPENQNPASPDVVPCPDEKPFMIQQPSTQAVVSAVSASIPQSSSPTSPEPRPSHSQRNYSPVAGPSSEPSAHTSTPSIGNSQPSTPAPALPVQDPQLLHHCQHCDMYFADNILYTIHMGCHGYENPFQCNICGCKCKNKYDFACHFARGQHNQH
T8 sequence (Q9UKT9 whole entry): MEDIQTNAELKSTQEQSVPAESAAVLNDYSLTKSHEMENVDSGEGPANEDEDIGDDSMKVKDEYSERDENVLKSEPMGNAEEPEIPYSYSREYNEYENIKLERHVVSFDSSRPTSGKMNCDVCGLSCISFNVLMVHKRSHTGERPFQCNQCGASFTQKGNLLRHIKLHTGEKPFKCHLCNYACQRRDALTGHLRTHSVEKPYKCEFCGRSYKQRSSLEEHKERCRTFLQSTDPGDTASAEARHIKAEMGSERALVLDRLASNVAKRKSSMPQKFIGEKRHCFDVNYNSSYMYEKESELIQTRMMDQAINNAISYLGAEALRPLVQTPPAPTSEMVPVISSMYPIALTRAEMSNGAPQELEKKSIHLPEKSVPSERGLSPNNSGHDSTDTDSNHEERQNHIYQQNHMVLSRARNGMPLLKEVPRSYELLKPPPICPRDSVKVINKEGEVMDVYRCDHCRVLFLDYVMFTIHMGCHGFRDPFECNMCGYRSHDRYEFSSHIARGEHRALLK
T8 sequence (Q96SW2 whole entry): as the sequence (Q96SW2 whole entry partner) above
T8 sequence (Q16531 whole entry partner): as the sequence (Q16531 whole entry partner) above

reduction of IKZF1 (proteomics) (IKZF1): approximately 75.1%
PLZF level (proteomics) (PLZF): remained unaffected
absolute [log2(fold change)] of GSPT1 (GSPT1): less than 1
absolute [log2(fold change)] of IKZF4 (IKZF4): less than 1
absolute [log2(fold change)] of CK1α (CK1α): less than 1
absolute [log2(fold change)] of IKZF5 (IKZF5): less than 1
SALL4 level (proteomics) (SALL4): remained unaffected
reduction of IKZF3 (proteomics) (IKZF3): ~80.2%
absolute [log2(fold change)] of IKZF2 (IKZF2): less than 1
Structure (SMILES): CN1CCN(Cc2cccc(C(=O)NC3CCC(=O)NC3=O)c2F)C(=O)C1 (stereo not drawn) [MGD-C9, N-(2,6-dioxopiperidin-3-yl)-2-fluoro-3-((4-methyl-2-oxopiperazin-1-yl)methyl)benzamide]
